Data on four compounds can be found in ChEMBL document CHEMBL5214899, “Tailor-made amino acids in the design of small-molecule blockbuster drugs” (Eur J Med Chem, 2021).

Experiment [1] is described as follows: Inhibition of TNF-alpha release in LPS stimulated human PBMC. In kind it is functional, cell-based.
Experiment [2] deals with Human immunodeficiency virus 1. Put plainly: Antiviral activity against HIV-1 IIIb infected in human MT2 cells assessed as reduction in virus induced cytopathic effect and measured after 5 days by XTT assay. In kind it is functional, organism-based. The following applies: Human immunodeficiency virus 1, IIIb, MT2, 120 h.
A further experiment concerns SARS-CoV. Put plainly: Antiviral activity against SARS 2019-nCoV infected in African green monkey Vero E6 cells assessed as inhibition of viral infection preincubated and measured after 48 hrs by qRT-PCR analysis. In kind it is functional. Conditions: Severe acute respiratory syndrome-related coronavirus, Vero C1008. (In general: Real-time PCR tracks product formation cycle by cycle.)

One may read the IC50 as the concentration that gives 50% inhibition. The compound `Nc1cccc2c1CN(C1CCC(=O)NC1=O)C2=O` (centres undefined) [LENALIDOMIDE] displayed a 50% inhibitory concentration (IC50) in experiment [1] of 0.1 µM. In general, EC50 refers to the concentration needed to bring the measured effect to its halfway point. Consider `C[C@H](Cn1cnc2c(N)ncnc21)OCP(=O)(O)O` [TENOFOVIR ANHYDROUS], for which the EC50 in experiment [2] came out at 5 µM. The same measure, in the same setting: the same measure for `C[C@H](Cn1cnc2c(N)ncnc21)OCP(=O)(O)N[C@H](C)C(=O)O`: 10 µM.

As a reminder, the EC90 is the concentration needed for an effect of 90%. In the case of `CCC(CC)COC(=O)[C@H](C)N[P@](=O)(OC[C@H]1O[C@@](C#N)(c2ccc3c(N)ncnn23)[C@H](O)[C@@H]1O)Oc1ccccc1` [REMDESIVIR], the EC90 in the experiment on SARS-CoV was 1.76 µM.
